{"source": "paper PMC6694107", "about": "“Characterization and overproduction of cell-associated cholesterol oxidase ChoD from Streptomyces lavendulae YAKB-15” (Scientific Reports, 2019)", "test_system": "T1, ChoD", "T1 construct": "ORF 547 aa including TAT signal; FAD enzyme", "assay": "ABTS/peroxidase coupled H2O2 assay, […] nm, initial rates", "type": "biochemical, Streptomyces lavendulae", "details": "pH 7 sodium-potassium phosphate, Triton X-100, ethanol (general assay); 8.4 nM enzyme, 4-168 µM cholesterol"}
{"smiles": "CC(C)CCC[C@@H](C)[C@H]1CC[C@H]2[C@@H]3CC=C4C[C@@H](O)CC[C@]4(C)[C@H]3CC[C@]12C", "note": "[cholesterol]", "values": [{"measurement": "Km", "result": 15.9, "unit": "µM"}]}
